{
  "source": "ChEMBL document CHEMBL5150007",
  "about": "“Zinc enzymes in medicinal chemistry” (Eur J Med Chem, 2021)",
  "key": {"[1]": {"target": "T1, Adenosine deaminase (Homo sapiens, UniProt P00813)", "T1 sequence (P00813 whole entry)": "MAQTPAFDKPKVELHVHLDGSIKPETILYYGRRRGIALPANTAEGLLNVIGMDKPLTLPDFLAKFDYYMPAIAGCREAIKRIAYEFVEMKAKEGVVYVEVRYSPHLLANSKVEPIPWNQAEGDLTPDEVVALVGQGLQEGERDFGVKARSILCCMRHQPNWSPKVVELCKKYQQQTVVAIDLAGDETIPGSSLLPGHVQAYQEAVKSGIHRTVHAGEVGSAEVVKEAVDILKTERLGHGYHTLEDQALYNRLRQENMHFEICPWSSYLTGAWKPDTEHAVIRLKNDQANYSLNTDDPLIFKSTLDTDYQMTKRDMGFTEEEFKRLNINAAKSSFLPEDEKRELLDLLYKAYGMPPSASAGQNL", "assay": "Binding affinity to ADA (unknown origin) assessed as inhibition constant"}, "[2]": {"target": "T2, Lethal factor (Bacillus anthracis, UniProt P15917)", "T2 sequence (P15917 whole entry)": "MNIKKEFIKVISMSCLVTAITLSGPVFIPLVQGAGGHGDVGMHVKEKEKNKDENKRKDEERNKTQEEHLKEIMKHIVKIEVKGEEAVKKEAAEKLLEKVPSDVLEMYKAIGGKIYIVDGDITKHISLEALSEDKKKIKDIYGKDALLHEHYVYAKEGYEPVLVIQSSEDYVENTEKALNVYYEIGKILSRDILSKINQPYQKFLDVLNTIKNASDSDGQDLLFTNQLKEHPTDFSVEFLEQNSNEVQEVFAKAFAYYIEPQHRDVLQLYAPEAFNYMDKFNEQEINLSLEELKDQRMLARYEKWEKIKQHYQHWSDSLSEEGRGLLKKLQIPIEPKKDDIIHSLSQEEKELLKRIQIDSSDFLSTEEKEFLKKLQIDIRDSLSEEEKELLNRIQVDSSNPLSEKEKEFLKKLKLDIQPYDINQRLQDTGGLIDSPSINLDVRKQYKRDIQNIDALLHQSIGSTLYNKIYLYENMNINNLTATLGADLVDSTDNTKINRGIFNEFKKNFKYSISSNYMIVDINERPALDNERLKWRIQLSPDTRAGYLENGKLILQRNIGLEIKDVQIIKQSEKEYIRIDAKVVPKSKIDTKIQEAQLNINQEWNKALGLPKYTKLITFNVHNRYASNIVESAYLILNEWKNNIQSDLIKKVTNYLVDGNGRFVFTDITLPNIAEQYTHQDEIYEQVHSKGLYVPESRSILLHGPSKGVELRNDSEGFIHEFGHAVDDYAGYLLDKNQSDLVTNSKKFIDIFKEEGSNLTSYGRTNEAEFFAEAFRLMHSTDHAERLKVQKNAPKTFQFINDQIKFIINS", "assay": "Binding affinity to Bacillus anthracis lethal factor assessed as inhibition constant"}, "[3]": {"assay": "Inhibition of NDM-1 (unknown origin) using imipenem as substrate by spectrophotometric assay", "set-up": "species or system Homo sapiens"}, "[4]": {"assay": "Inhibition of NDM-1 (unknown origin)", "set-up": "species or system Homo sapiens"}, "[5]": {"target": "T2, Lethal factor", "assay": "Inhibition of Bacillus anthracis lethal factor"}, "[6]": {"assay": "Inhibition of VIM-2 (unknown origin)", "set-up": "species or system Homo sapiens"}, "[7]": {"assay": "Inhibition of farnesyltransferase (unknown origin)", "set-up": "species or system Homo sapiens"}, "[8]": {"target": "Disintegrin and metalloproteinase domain-containing protein 17 (Homo sapiens, UniProt P78536)", "sequence (P78536 whole entry, the tested form may be a part)": "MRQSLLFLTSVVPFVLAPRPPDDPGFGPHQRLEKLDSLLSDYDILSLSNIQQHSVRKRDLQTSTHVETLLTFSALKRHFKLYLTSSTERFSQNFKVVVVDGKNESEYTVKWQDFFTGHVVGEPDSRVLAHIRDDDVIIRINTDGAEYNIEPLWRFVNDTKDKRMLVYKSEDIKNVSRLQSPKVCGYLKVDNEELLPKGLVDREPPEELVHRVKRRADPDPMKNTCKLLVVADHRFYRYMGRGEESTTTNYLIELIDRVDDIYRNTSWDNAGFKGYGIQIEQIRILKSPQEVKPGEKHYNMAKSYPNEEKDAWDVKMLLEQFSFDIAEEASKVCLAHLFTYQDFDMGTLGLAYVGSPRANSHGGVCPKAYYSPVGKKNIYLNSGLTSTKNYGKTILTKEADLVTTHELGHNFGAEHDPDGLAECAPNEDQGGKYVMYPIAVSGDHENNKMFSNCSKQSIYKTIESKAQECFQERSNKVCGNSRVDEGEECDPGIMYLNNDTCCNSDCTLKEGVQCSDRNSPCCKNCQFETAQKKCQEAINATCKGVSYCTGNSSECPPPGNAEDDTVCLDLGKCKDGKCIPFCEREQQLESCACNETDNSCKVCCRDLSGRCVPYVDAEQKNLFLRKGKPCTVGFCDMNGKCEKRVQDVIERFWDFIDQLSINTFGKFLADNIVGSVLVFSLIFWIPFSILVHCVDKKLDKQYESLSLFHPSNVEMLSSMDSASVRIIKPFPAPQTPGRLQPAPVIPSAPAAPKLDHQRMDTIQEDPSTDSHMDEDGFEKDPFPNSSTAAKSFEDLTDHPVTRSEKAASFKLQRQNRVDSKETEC", "assay": "Inhibition of human ADAM17"}, "[9]": {"target": "T3, Disintegrin and metalloproteinase domain-containing protein 10 (Homo sapiens, UniProt O14672)", "T3 sequence (O14672 whole entry)": "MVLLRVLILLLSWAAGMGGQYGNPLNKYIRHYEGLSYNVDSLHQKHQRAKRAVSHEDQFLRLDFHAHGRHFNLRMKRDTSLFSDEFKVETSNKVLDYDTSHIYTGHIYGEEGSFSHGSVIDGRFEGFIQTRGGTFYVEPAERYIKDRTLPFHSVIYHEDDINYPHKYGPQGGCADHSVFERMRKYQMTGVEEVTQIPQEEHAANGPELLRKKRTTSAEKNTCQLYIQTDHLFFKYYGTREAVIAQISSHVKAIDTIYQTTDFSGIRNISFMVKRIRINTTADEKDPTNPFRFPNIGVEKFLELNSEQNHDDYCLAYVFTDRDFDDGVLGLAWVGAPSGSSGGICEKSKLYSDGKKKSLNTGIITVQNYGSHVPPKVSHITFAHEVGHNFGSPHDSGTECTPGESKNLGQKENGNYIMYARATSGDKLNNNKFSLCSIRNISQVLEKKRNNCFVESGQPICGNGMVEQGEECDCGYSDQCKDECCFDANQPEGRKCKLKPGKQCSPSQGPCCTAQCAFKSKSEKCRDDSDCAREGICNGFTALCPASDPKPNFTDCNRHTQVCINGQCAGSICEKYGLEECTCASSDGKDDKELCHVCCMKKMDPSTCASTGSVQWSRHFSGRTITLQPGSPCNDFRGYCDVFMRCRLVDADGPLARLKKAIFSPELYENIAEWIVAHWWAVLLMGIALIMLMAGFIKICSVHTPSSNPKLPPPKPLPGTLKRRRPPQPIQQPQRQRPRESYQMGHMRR", "assay": "Inhibition of human ADAM10 using (biotin-SPLAQAVRSSSRTP(3H)S-NH2) as a substrate by streptavidin-coated scintillation proximity assay"}},
  "note": "Starred links: 1 amine or outer side, 2 acyl side, 3 side chain; linkers in the order of their positions; H or OH if unused. Residues, ends and D or L forms follow the SMILES beside them. *: point of attachment. CO = O=C([*:1])[*:2]; N(Me)OMe = CON(C)*",
  "data": [
    {"molecule": "CCCCCC[C@H]([C@H](C)O)n1cnc2c(N)ncnc21", "note": "[(+)-EHNA]", "values": [
      {"measurement": "Ki", "setting": "[1]", "result": 1, "unit": "nM"}
    ]},
    {"molecule": "CON(C)C(=O)N[C@@H](CCCNC(=N)N)C(=O)N[C@@H](CC(C)C)C(=O)N[C@H](C(=O)N[C@@H](CCCNC(=N)N)C(=O)O)C(C)C", "note": "({N(Me)OMe-CO}-RLVR-OH)", "values": [
      {"measurement": "Ki", "setting": "[2]", "result": 6.4, "unit": "nM"}
    ]},
    {"molecule": "C[C@@H](CS)C(=O)N1CCC[C@H]1C(=O)O", "values": [
      {"measurement": "IC50", "setting": "[3]", "result": 7.9, "unit": "nM"}
    ]},
    {"molecule": "N[C@@H](CN[C@@H](CN[C@@H](CC(=O)O)C(=O)O)C(=O)O)C(=O)O", "values": [
      {"measurement": "IC50", "setting": "[4]", "result": 7000, "unit": "nM"}
    ]},
    {"molecule": "O=C(O[C@@H]1Cc2c(O)cc(O)cc2O[C@@H]1c1cc(O)c(O)c(O)c1)c1cc(O)c(O)c(O)c1", "note": "[EPIGALOCATECHIN GALLATE]", "values": [
      {"measurement": "IC50", "setting": "[5]", "result": 97, "unit": "nM"}
    ]},
    {"molecule": "O=C(O)c1nccn1Cc1ccccc1", "values": [
      {"measurement": "IC50", "setting": "[6]", "result": 0.45, "unit": "nM"},
      {"measurement": "IC50", "setting": "[4]", "result": 66700, "unit": "nM"}
    ]},
    {"molecule": "CCC(C)[C@@H](CO[C@@H](Cc1ccccc1)C(=O)N[C@@H](CCS(C)(=O)=O)C(=O)O)NC[C@@H](N)CS", "note": "(some centres not stated)", "values": [
      {"measurement": "IC50", "setting": "[7]", "result": 240, "unit": "nM"}
    ]},
    {"molecule": "CCN(CCCC[C@@H](C[C@@H](OC)c1ccc(F)cc1)C(=O)NO)c1ccc(F)cc1", "values": [
      {"measurement": "Ki", "setting": "[2]", "result": 0.27, "unit": "nM"}
    ]},
    {"molecule": "NC[C@@H]1O[C@H](O[C@H]2[C@@H](O)[C@H](O[C@@H]3[C@@H](O)[C@H](N)C[C@H](N)[C@H]3O[C@H]3O[C@H](CN)[C@@H](O)[C@H](O)[C@H]3N)O[C@@H]2CO)[C@H](N)[C@@H](O)[C@@H]1O", "note": "[FRAMYCETIN]", "values": [
      {"measurement": "Ki", "setting": "[2]", "result": 7, "unit": "nM"}
    ]},
    {"molecule": "CNC(=O)[C@@H](NC(=O)C(CCCc1ccccc1)[C@H](C)N(O)C=O)C(C)(C)C", "note": "(some centres not stated)", "values": [
      {"measurement": "IC50", "setting": "[8]", "result": 541, "unit": "nM"},
      {"measurement": "IC50", "setting": "[9]", "result": 5.3, "unit": "nM"}
    ]}
  ]
}
